Laboratory results published in patent US8735414B2 (priority 2009, dated 2014).

test system: bicistronic HCV replicon (replicon RNA, GenBank Accession No. AJ242654); assay: HCV Replicon Assay; type: cell-based; details: Hepatitis C virus, 72 h, read-out: Replicon IC50

Row | SMILES | IC50
1 | N#Cc1c(-c2ccc(S(=O)(=O)NC3CC(F)(F)C3)cn2)n(C2CCC2)c2ccc(Cl)cc12 [compound 243, 6-(5-chloro-3-cyano-1-cyclobutyl-1H-indol-2-yl)-N-(3,3-difluorocyclobutyl)pyridine-3-sulfonamide] | 0.5 to 2 µM
2 | Cc1cc2c(cc1F)c(C(=O)O)c(-c1ccc(S(=O)(=O)N[C@@H](C)C(F)(F)F)cn1)n2C1CCCC1 [compound 758, (S)-1-cyclopentyl-5-fluoro-6-methyl-2-(5-(N-(1,1,1-trifluoropropan-2-yl)sulfamoyl)pyridin-2-yl)-1H-indole-3-carboxylic acid] | < 0.5 µM
3 | C[C@H](NS(=O)(=O)c1ccc(-c2c(C#N)c3ccc(CC(F)F)cc3n2CC2CC2)nc1)C1CC1 [compound 617, 6-[3-cyano-1-(cyclopropylmethyl)-6-(2,2-difluoroethyl)-1H-indol-2-yl]-N-[(1S)-1-cyclopropylethyl]pyridine-3-sulfonamide] | < 0.5 µM
4 | CNC(=O)c1c(-c2ccc(S(=O)(=O)N[C@@H](C)C(F)(F)F)cn2)n(C2CCC2)c2cc(C)c(F)cc12 [compound 801, 1-cyclobutyl-5-fluoro-N,6-dimethyl-2-(5-{[(2S)-1,1,1-trifluoropropan-2-yl]sulfamoyl}pyridin-2-yl)-1H-indole-3-carboxamide] | < 0.5 µM
5 | C[C@@H](NS(=O)(=O)c1ccc(-c2c(C#N)c3cc(Cl)ccc3n2C2CCC2)nc1)C(F)(F)F [compound 316, 6-(5-chloro-3-cyano-1-cyclobutyl-1H-indol-2-yl)-N-[(2R)-1,1,1-trifluoropropan-2-yl]pyridine-3-sulfonamide] | < 0.5 µM
6 | CCc1cc2c(cc1F)c(C(N)=O)c(-c1ccc(S(=O)(=O)N[C@@H](C)C(F)(F)F)cn1)n2-c1ccc(Cl)cn1 [compound 1043, 1-(5-chloropyridin-2-yl)-6-ethyl-5-fluoro-2-(5-{[(2S)-1,1,1-trifluoropropan-2-yl]sulfamoyl}pyridin-2-yl)-1H-indole-3-carboxamide] | < 0.5 µM
7 | C[C@H](NS(=O)(=O)c1ccc(-c2c(C#N)c3cc(F)c(OC(F)F)cc3n2C2CCC2)nc1)C(F)(F)F [compound 549, 6-[3-cyano-1-cyclobutyl-6-(difluoromethoxy)-5-fluoro-1H-indol-2-yl]-N-[(2S)-1,1,1-trifluoropropan-2-yl]pyridine-3-sulfonamide] | < 0.5 µM
8 | Cc1cc2c(cc1F)c(C#N)c(-c1ccc(S(=O)(=O)N[C@@H](C)C(F)(F)F)cn1)n2-c1ccc(F)cn1 [compound 742, 6-[3-cyano-5-fluoro-1-(5-fluoropyridin-2-yl)-6-methyl-1H-indol-2-yl]-N-[(2S)-1,1,1-trifluoropropan-2-yl]pyridine-3-sulfonamide] | < 0.5 µM
9 | Cc1cc2c(cc1F)c(C#N)c(-c1ccc(S(=O)(=O)NC(C)(C)C(F)(F)F)cn1)n2C1CCOCC1 [compound 750, 6-[3-cyano-5-fluoro-6-methyl-1-(tetrahydro-2H-pyran-4-yl)-1H-indol-2-yl]-N-(1,1,1-trifluoro-2-methylpropan-2-yl)pyridine-3-sulfonamide] | < 0.5 µM
10 | Cc1ccnc(-n2c(-c3ccc(S(=O)(=O)N[C@@H](C)C(F)(F)F)cn3)c(C#N)c3cc(F)c(C)cc32)n1 [compound 873, 6-[3-cyano-5-fluoro-6-methyl-1-(4-methylpyrimidin-2-yl)-1H-indol-2-yl]-N-[(2S)-1,1,1-trifluoropropan-2-yl]pyridine-3-sulfonamide] | < 0.5 µM
11 | Cc1cc2c(cc1F)cc(-c1ccc(S(=O)(=O)N[C@@H](C)C(F)(F)F)cn1)n2-c1ncco1 [compound 1059, 6-[5-fluoro-6-methyl-1-(1,3-oxazol-2-yl)-1H-indol-2-yl]-N-[(2S)-1,1,1-trifluoropropan-2-yl]pyridine-3-sulfonamide] | < 0.5 µM
12 | CC(C)(C)NS(=O)(=O)c1ccc(-c2c(C#N)c3cc(F)c(OC(F)F)cc3n2C2CCC2)nc1 [compound 720, N-tert-butyl-6-[3-cyano-1-cyclobutyl-6-(difluoromethoxy)-5-fluoro-1H-indol-2-yl]pyridine-3-sulfonamide] | < 0.5 µM
13 | CCc1cc2c(cc1F)c(C#N)c(-c1ccc(S(=O)(=O)NC(C)(C)C(F)(F)F)cn1)n2-c1ncccn1 [compound 859, 6-[3-cyano-6-ethyl-5-fluoro-1-(pyrimidin-2-yl)-1H-indol-2-yl]-N-(1,1,1-trifluoro-2-methylpropan-2-yl)pyridine-3-sulfonamide] | 0.5 to 2 µM
14 | Cc1cc2c(cc1F)c(C#N)c(-c1ccc(S(=O)(=O)N[C@@H](C)C(F)(F)F)cn1)n2C1CCOCC1 [compound 751, 6-[3-cyano-5-fluoro-6-methyl-1-(tetrahydro-2H-pyran-4-yl)-1H-indol-2-yl]-N-[(2S)-1,1,1-trifluoropropan-2-yl]pyridine-3-sulfonamide] | < 0.5 µM
15 | N#Cc1c(-c2ccc(S(=O)(=O)NC3(C(F)(F)F)CC3)cn2)n(-c2ccccn2)c2cc(OC(F)F)ccc12 [compound 623, 6-[3-cyano-6-(difluoromethoxy)-1-(pyridin-2-yl)-1H-indol-2-yl]-N-[1-(trifluoromethyl)cyclopropyl]pyridine-3-sulfonamide] | 0.5 to 2 µM
16 | C[C@H](NS(=O)(=O)c1ccc(-c2c(C#N)c3c(F)cc(OC(F)F)cc3n2CC2CC2)nc1)C(F)(F)F [compound 773, 6-[3-cyano-1-(cyclopropylmethyl)-6-(difluoromethoxy)-4-fluoro-1H-indol-2-yl]-N-[(2S)-1,1,1-trifluoropropan-2-yl]pyridine-3-sulfonamide] | 0.5 to 2 µM

Row | SMILES | IC50
17 | C[C@@H](C1CC1)n1c(-c2ccc(NS(=O)(=O)C(C)(C)C)nc2)c(C(=O)O)c2cc(F)c(OC(F)F)cc21 [compound 1080, 2-{6-[(tert-butylsulfonyl)amino]pyridin-3-yl}-1-[(1S)-1-cyclopropylethyl]-6-(difluoromethoxy)-5-fluoro-1H-indole-3-carboxylic acid] | 0.5 to 2 µM
18 | C[C@@H](NS(=O)(=O)c1ccc(-c2c(C#N)c3ccc(Cl)cc3n2C2CCCC2)nc1)C(F)(F)F [compound 223, 6-(6-chloro-3-cyano-1-cyclopentyl-1H-indol-2-yl)-N-[(2R)-1,1,1-trifluoropropan-2-yl]pyridine-3-sulfonamide] | < 0.5 µM
19 | Cc1cc2c(cc1F)c(C#N)c(-c1ccc(S(=O)(=O)NC3(C(F)(F)F)CC3)cn1)n2C1CCCCC1 [compound 856, 6-(3-cyano-1-cyclohexyl-5-fluoro-6-methyl-1H-indol-2-yl)-N-[1-(trifluoromethyl)cyclopropyl]pyridine-3-sulfonamide] | < 0.5 µM
20 | C=CCc1cc2c(cc1F)cc(-c1ccc(S(=O)(=O)N[C@@H](C)C(F)(F)F)cn1)n2-c1ncccn1 [compound 969, 6-[5-fluoro-6-(prop-2-en-1-yl)-1-(pyrimidin-2-yl)-1H-indol-2-yl]-N-[(2S)-1,1,1-trifluoropropan-2-yl]pyridine-3-sulfonamide] | < 0.5 µM
21 | Cc1ccc2c(c1)c(C(N)=O)c(-c1ccc(S(=O)(=O)N[C@@H](C)C(F)(F)F)cn1)n2-c1ncccn1 [compound 846, 5-methyl-1-(pyrimidin-2-yl)-2-(5-{[(2S)-1,1,1-trifluoropropan-2-yl]sulfamoyl}pyridin-2-yl)-1H-indole-3-carboxamide] | < 0.5 µM
22 | CC(C)NS(=O)(=O)c1ccc(-c2c(C#N)c3ccc(C4CC4)cc3n2C2CC2)nc1 [compound 109, 6-(3-cyano-1,6-dicyclopropyl-1H-indol-2-yl)-N-(propan-2-yl)pyridine-3-sulfonamide] | < 0.5 µM
23 | CCc1cc2c(cc1F)c(C#N)c(-c1ccc(S(=O)(=O)N[C@@H](C)C(F)(F)F)cn1)n2-c1ccccn1 [compound 778, 6-[3-cyano-6-ethyl-5-fluoro-1-(pyridin-2-yl)-1H-indol-2-yl]-N-[(2S)-1,1,1-trifluoropropan-2-yl]pyridine-3-sulfonamide] | < 0.5 µM
24 | CC(C)(NS(=O)(=O)c1ccc(-c2c(C#N)c3ccc(C4CC4)cc3n2-c2ccccn2)nc1)C(F)(F)F [compound 584, 6-[3-cyano-6-cyclopropyl-1-(pyridin-2-yl)-1H-indol-2-yl]-N-(1,1,1-trifluoro-2-methylpropan-2-yl)pyridine-3-sulfonamide] | 0.5 to 2 µM
25 | Cc1cc2c(cc1F)cc(-c1ccc(S(=O)(=O)N[C@@H](C)C(F)(F)F)cn1)n2C1CCCC1 [compound 760, 6-(1-cyclopentyl-5-fluoro-6-methyl-1H-indol-2-yl)-N-[(2S)-1,1,1-trifluoropropan-2-yl]pyridine-3-sulfonamide] | < 0.5 µM
26 | CC(C)(C)S(=O)(=O)Nc1ccc(-c2c(C(=O)O)c3cc(F)c(OC(F)F)cc3n2C2CCCCC2)cn1 [compound 1064, 2-{6-[(tert-butylsulfonyl)amino]pyridin-3-yl}-1-cyclohexyl-6-(difluoromethoxy)-5-fluoro-1H-indole-3-carboxylic acid] | < 0.5 µM
27 | CC(=O)c1cc2c(cc1F)c(C(C)=O)c(-c1ccc(S(=O)(=O)NC(C)(C)C)cn1)n2-c1ncccn1 [compound 939, N-tert-butyl-6-(3,6-diacetyl-5-fluoro-1-(pyrimidin-2-yl)-1H-indol-2-yl)pyridine-3-sulfonamide] | 2 to 5 µM
28 | Cc1ccc2c(c1)c(C#N)c(-c1ccc(S(=O)(=O)N[C@H](C)C(F)(F)F)cn1)n2C1CCCC1 [compound 486, 6-(3-cyano-1-cyclopentyl-5-methyl-1H-indol-2-yl)-N-[(2R)-1,1,1-trifluoropropan-2-yl]pyridine-3-sulfonamide] | < 0.5 µM
29 | CC(C)n1c(-c2ncc(S(=O)(=O)NC(CF)CF)cn2)c(C#N)c2cc(Cl)ccc21 [compound 187, 2-[5-chloro-3-cyano-1-(propan-2-yl)-1H-indol-2-yl]-N-(1,3-difluoropropan-2-yl)pyrimidine-5-sulfonamide] | < 0.5 µM
30 | Cc1cc2c(cc1F)c(C#N)c(-c1cc(C)c(S(=O)(=O)N[C@@H](C)C(F)(F)F)cn1)n2-c1ncccn1 [compound 853, 6-[3-cyano-5-fluoro-6-methyl-1-(pyrimidin-2-yl)-1H-indol-2-yl]-4-methyl-N-[(2S)-1,1,1-trifluoropropan-2-yl]pyridine-3-sulfonamide] | < 0.5 µM
31 | C[C@@H](NS(=O)(=O)c1ccc(-c2c(C#N)c3cc(F)c(OC(F)F)cc3n2-c2ccccn2)nc1)C(F)(F)F [compound 670, 6-[3-cyano-6-(difluoromethoxy)-5-fluoro-1-(pyridin-2-yl)-1H-indol-2-yl]-N-[(2R)-1,1,1-trifluoropropan-2-yl]pyridine-3-sulfonamide] | < 0.5 µM
